# Data as given in patent US9718804B2, “GSK-3 inhibitors” (BRISTOL-MYERS SQUIBB COMPANY, priority 2013, dated 2017).
# Read-outs that look alike come from different tables or passages of the source.
# Tests used:
# pTau = pTau assay (no method described); assay type: cell-based
# GSK3β = GSK3β (Homo sapiens, UniProt P49841); assay: GSK3β kinase assay (Caliper LabChip, fluoresceinated peptide substrate); assay type: biochemical
# Outline: (§1)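 RT, 20 h incubation; EDTA stop (35 mM). Microfluidic electrophoretic separation of product vs. substrate.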
# GSK3α = GSK3α (Homo sapiens, UniProt P49840); assay: GSK3α kinase assay (Caliper LabChip, fluoresceinated peptide substrate); assay type: biochemical
# Outline: as §1
# [1] = first value of the cell, 250 pM enzyme, 20 uM ATP, 20 hours at room temperature, read-out: GSK3β/α (nM): GSK3β IC50
# Chain of GSK3α (P49840 whole entry, species assumed): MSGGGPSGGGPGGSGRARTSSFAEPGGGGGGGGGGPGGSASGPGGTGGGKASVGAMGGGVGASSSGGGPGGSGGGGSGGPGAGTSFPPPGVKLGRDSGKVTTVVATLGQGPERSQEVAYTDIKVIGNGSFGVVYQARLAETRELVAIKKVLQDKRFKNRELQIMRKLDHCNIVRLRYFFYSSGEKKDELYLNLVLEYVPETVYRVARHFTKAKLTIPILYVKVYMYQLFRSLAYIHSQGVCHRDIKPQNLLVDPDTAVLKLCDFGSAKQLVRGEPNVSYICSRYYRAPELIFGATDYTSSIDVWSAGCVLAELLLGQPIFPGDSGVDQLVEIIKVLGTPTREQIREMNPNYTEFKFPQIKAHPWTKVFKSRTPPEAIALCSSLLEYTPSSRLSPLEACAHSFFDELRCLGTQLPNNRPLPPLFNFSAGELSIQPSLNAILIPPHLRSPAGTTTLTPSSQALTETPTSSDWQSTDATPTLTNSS
# Chain of GSK3β (P49841 whole entry, species assumed): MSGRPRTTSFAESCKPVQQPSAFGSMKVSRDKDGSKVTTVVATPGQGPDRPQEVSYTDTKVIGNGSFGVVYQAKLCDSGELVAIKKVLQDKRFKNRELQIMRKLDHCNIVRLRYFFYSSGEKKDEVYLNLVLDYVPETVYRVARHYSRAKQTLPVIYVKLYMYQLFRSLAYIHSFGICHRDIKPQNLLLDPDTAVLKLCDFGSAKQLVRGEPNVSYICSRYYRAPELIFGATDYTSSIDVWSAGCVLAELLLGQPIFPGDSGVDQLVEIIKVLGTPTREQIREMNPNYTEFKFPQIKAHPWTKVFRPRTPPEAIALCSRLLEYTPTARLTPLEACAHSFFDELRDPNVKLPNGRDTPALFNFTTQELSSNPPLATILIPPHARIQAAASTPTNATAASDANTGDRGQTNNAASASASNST
SMILES,IC50 (pTau),IC50 (GSK3β; [1]),IC50 (GSK3α),IC50 (GSK3β),"IC50 (GSK3α; second value of the cell, 250 pM enzyme, 20 uM ATP, 20 hours at room temperature, read-out: GSK3β/α (nM): GSK3α IC50)"
"N#Cc1cccc(Nc2cc(C(=O)Nc3cncc(-c4ccccc4F)c3)ccn2)n1 [Example 152, 2-((6-Cyanopyridin-2-yl)amino)-N-(5-(2-fluorophenyl)pyridin-3-yl)isonicotinamide]",260 nM,1.6 nM,0.87 nM,–,–
"CCC(O)(c1cc(Cl)ncc1NC(=O)c1ccnc(Nc2ccc(C(F)(F)F)cn2)c1)C1CC1 (stereo not drawn) [Example 101, N-(6-Chloro-4-(1-cyclopropyl-1-hydroxypropyl)pyridin-3-yl)-2-((5-(trifluoromethyl)pyridin-2-yl)amino)isonicotinamide]",660 nM,11 nM,7.4 nM,–,–
"O=C(Nc1cncc(-c2ccccc2Cl)c1)c1ccnc(Nc2ccc(C(F)(F)F)cn2)c1 [Example 128, N-(5-(2-Chlorophenyl)pyridin-3-yl)-2-((5-(trifluoromethyl)pyridin-2-yl)amino)isonicotinamide]",2180 nM,12 nM,16 nM,–,–
"CC(O)c1ccncc1NC(=O)c1ccnc(Nc2ccc(C(F)(F)F)cn2)c1 (stereo not drawn) [Example 34, N-(4-(1-Hydroxyethyl)pyridin-3-yl)-2-((5-(trifluoromethyl)pyridin-2-yl)amino)isonicotinamide]",37 nM,3.2 nM,1.4 nM,–,–
"CC(O)(c1cc(Cl)ncc1NC(=O)c1ccnc(Nc2ccc(C(F)(F)F)cn2)c1)C1CC1 (stereo not drawn) [Example 98, N-(6-Chloro-4-(1-cyclopropyl-1-hydroxyethyl)pyridin-3-yl)-2-((5-(trifluoromethyl)pyridin-2-yl)amino)isonicotinamide]",230 nM,3.7 nM,4 nM,–,–
"CC(=O)c1ccc(Nc2cc(C(=O)Nc3cncc(-c4ccccc4F)c3)ccn2)nc1 [Example 158, 2-((5-Acetylpyridin-2-yl)amino)-N-(5-(2-fluorophenyl)pyridin-3-yl)isonicotinamide]",690 nM,6 nM,3 nM,–,–
"CC1(COc2ccncc2NC(=O)c2ccnc(Nc3ccc(C(F)(F)F)cn3)c2)CC1 [Example 44, N-(4-((1-Methylcyclopropyl)methoxy)pyridin-3-yl)-2-((5-(trifluoromethyl)pyridin-2-yl)amino)isonicotinamide]",52 nM,1.4 nM,0.33 nM,–,–
"O=C(Nc1cnccc1C1=CCOCC1)c1ccnc(Nc2ccc(C(F)(F)F)cn2)c1 [Example 32, N-(4-(3,6-Dihydro-2H-pyran-4-yl)pyridin-3-yl)-2-((5-(trifluoromethyl)pyridin-2-yl)amino)isonicotinamide]",71 nM,2.3 nM,0.78 nM,–,–
"O=C(Nc1cnc(F)cc1OCC(F)F)c1ccnc(Nc2ccc(F)cn2)c1 [Example 114, N-(4-(2,2-Difluoroethoxy)-6-fluoropyridin-3-yl)-2-((5-fluoropyridin-2-yl)amino)isonicotinamide]",220 nM,4.4 nM,1.5 nM,–,–
"O=C(Nc1cnc(F)cc1OCC(F)F)c1ccnc(Nc2ccc(C(F)(F)F)cn2)c1 [Example 80, N-(4-(2,2-Difluoroethoxy)-6-fluoropyridin-3-yl)-2-((5-(trifluoromethyl)pyridin-2-yl)amino)isonicotinamide]",86 nM,6.2 nM,3.3 nM,–,–
"N#Cc1cccc(Nc2cc(C(=O)Nc3cncc(-c4cccc(F)c4C#N)c3)ccn2)n1 [Example 166, N-(5-(2-Cyano-3-fluorophenyl)pyridin-3-yl)-2-((6-cyanopyridin-2-yl)amino)isonicotinamide]",390 nM,0.91 nM,0.28 nM,–,–
"CCOc1ccncc1NC(=O)c1ccnc(Nc2ccc(C(F)(F)F)cn2)c1 [Example 15, N-(4-Ethoxypyridin-3-yl)-2-((5-trifluoromethylpyridin-2-yl)amino)isonicotinamide]",42 nM,1.3 nM,0.56 nM,–,–
"O=C(Nc1cnc(Cl)cc1C(O)C1CC1)c1ccnc(Nc2ccc(C(F)(F)F)cn2)c1 (stereo not drawn) [Example 93, N-(6-Chloro-4-(cyclopropyl(hydroxy)methyl)pyridin-3-yl)-2-((5-(trifluoromethyl)pyridin-2-yl)amino)isonicotinamide]",110 nM,2.6 nM,0.78 nM,–,–
"O=C(Nc1cnc(Cl)cc1SC1CC1)c1ccnc(Nc2ccc(C(F)(F)F)cn2)c1 [Example 176, N-(6-Chloro-4-(cyclopropylthio)pyridin-3-yl)-2-((5-(trifluoromethyl)pyridin-2-yl)amino)isonicotinamide]",1100 nM,11 nM,7 nM,–,–
"O=C(Nc1cncc(F)c1-c1ccccc1)c1ccnc(Nc2ccc(C(F)(F)F)cn2)c1 [Example 117, N-(5-Fluoro-4-phenylpyridin-3-yl)-2-((5-(trifluoromethyl)pyridin-2-yl)amino)isonicotinamide]",254 nM,3 nM,1.4 nM,–,–
"CC(C)(C)COc1ccncc1NC(=O)c1ccnc(Nc2ccc(C(F)(F)F)cn2)c1 [Example 17, N-(4-(Neopentyloxy)pyridin-3-yl)-2-((5-(trifluoromethyl)pyridin-2-yl)amino)isonicotinamide]",43 nM,1.6 nM,0.89 nM,–,–
"CC(C)S(=O)(=O)c1ccncc1NC(=O)c1ccnc(Nc2ccc(C(F)(F)F)cn2)c1 [Example 186, N-(4-(Isopropylsulfonyl)pyridin-3-yl)-2-((5-(trifluoromethyl)pyridin-2-yl)amino)isonicotinamide]",2 nM,–,–,1.2 nM,0.04 nM
"O=C(Nc1cnccc1OCC(F)(F)F)c1ccnc(Nc2ccc(C(F)(F)F)cn2)c1 [Example 18, N-(4-(Trifluoroethoxy)pyridin-3-yl)-2-((5-(trifluoromethyl)pyridin-2-yl)amino)isonicotinamide]",13 nM,0.71 nM,0.42 nM,–,–
"CCC1(c2cc(Cl)ncc2NC(=O)c2ccnc(Nc3ccc(F)cn3)c2)OCCO1 [Example 113, N-(6-Chloro-4-(2-ethyl-1,3-dioxolan-2-yl)pyridin-3-yl)-2-((5-fluoropyridin-2-yl)amino)isonicotinamide]",14 nM,1.7 nM,0.04 nM,–,–
"CC1(C)CN(c2ccncc2NC(=O)c2ccnc(Nc3ccc(C#N)cn3)c2)CCO1 [Example 28, 2-((5-Cyanopyridin-2-yl)amino)-N-(4-(2,2-dimethylmorpholino)pyridin-3-yl)isonicotinamide]",16 nM,0.55 nM,0.37 nM,–,–
"N#Cc1ccc(Nc2cc(C(=O)Nc3cnccc3-c3ccc(F)cc3F)ccn2)nc1 [Example 57, 2-((5-Cyanopyridin-2-yl)amino)-N-(4-(2,4-difluorophenyl)pyridin-3-yl)isonicotinamide]",19 nM,1.3 nM,0.59 nM,–,–
"N#Cc1ccc(Nc2cc(C(=O)Nc3cnccc3-c3ccc(F)cc3)ccn2)nc1 [Example 56, 2-((5-Cyanopyridin-2-yl)amino)-N-(4-(4-fluorophenyl)pyridin-3-yl)isonicotinamide]",36 nM,2.4 nM,0.98 nM,–,–
"O=C(Nc1cnc(Cl)cc1C(O)(C1CC1)C1CC1)c1ccnc(Nc2ccc(C(F)(F)F)cn2)c1 [Example 99, N-(6-Chloro-4-(dicyclopropyl(hydroxy)methyl)pyridin-3-yl)-2-((5-(trifluoromethyl)pyridin-2-yl)amino)isonicotinamide]",430 nM,6.4 nM,4.6 nM,–,–
"N#Cc1ccc(-c2ccncc2NC(=O)c2ccnc(Nc3ccc(C(F)(F)F)cn3)c2)c(F)c1 [Example 52, N-(4-(2-Fluoro-4-cyano-phenyl)pyridin-3-yl)-2-((5-(trifluoromethyl)pyridin-2-yl)amino)isonicotinamide]",35 nM,3.6 nM,1.5 nM,–,–
"CC[C@@]1(c2cc(Cl)ncc2NC(=O)c2ccnc(Nc3ccc(C(F)(F)F)cn3)c2)OC[C@H](C(F)(F)F)O1 [Example 86, N-(6-Chloro-4-((2R,4R)-2-ethyl-4-(trifluoromethyl)-1,3-dioxolan-2-yl)pyridin-3-yl)-2-((5-(trifluoromethyl)pyridin-2-yl)amino)isonicotinamide]",510 nM,12 nM,2.4 nM,–,–
"O=C(Nc1cncc(-c2ccccc2F)c1)c1ccnc(Nc2ccc(S(=O)(=O)N3CCCCC3)cn2)c1 [Example 159, N-(5-(2-Fluorophenyl)pyridin-3-yl)-2-((5-(piperidin-1-ylsulfonyl)pyridin-2-yl)amino)isonicotinamide]",960 nM,–,1.9 nM,3.9 nM,–
"O=C(Nc1cncnc1)c1ccnc(Nc2ccc(C(F)(F)F)cn2)c1 [Example 191, N-(Pyrimidin-5-yl)-2-((5-(trifluoromethyl)pyridin-2-yl)amino)isonicotinamide]",1600 nM,17 nM,9 nM,–,–
"O=C(Nc1cnccc1-c1ccccc1)c1ccnc(Nc2ccc(Br)cn2)c1 [Example 63, 2-((5-Bromopyridin-2-yl)amino)-N-(4-phenylpyridin-3-yl)isonicotinamide]",150 nM,9.3 nM,3.4 nM,–,–
"O=C(Nc1cnc(Cl)cc1S(=O)(=O)C1CC1)c1ccnc(Nc2ccc(C(F)(F)F)cn2)c1 [Example 188, N-(6-Chloro-4-(cyclopropylsulfonyl)pyridin-3-yl)-2-((5-(trifluoromethyl)pyridin-2-yl)amino)isonicotinamide]",150 nM,5 nM,3.3 nM,–,–
"CC[C@@]1(c2cc(Cl)ncc2NC(=O)c2ccnc(Nc3ccc(C(F)(F)F)cn3)c2)OC[C@@H](C(F)(F)F)O1 [Example 85, N-(6-Chloro-4-((2R,4S)-2-ethyl-4-(trifluoromethyl)-1,3-dioxolan-2-yl)pyridin-3-yl)-2-((5-(trifluoromethyl)pyridin-2-yl)amino)isonicotinamide]",5500 nM,64 nM,35 nM,–,–
